The test system of series [1] is PTH secretion. Nature of the series: PTH secretion action, Experimental Example 2 (serum PTH after oral administration). The class given is in vivo, male SD rats. Particulars: comparative example, 30 mg/5 ml/kg oral.
Series [2] relates to PTH secretion. Nature of the series: Concomitant administration of test compound and estrogen: blood PTH with time. The class given is in vivo, ovariectomized rats. Here is the method:
The 13-week-old ovariectomized rats were divided into 4 groups of a control group (Group A), an estrogen administration group (Group B), a test compound administration group (Group C), and a test compound and estrogen concomitant administration group (Group D). One sham control group (E group) subjected to a sham surgery was also established. Estradiol was dissolved in 5% benzyl alcohol-corn oil and subcutaneously administered to an estrogen administration groups (Group B and Group D) at the dose of 10 μg/kg. 5% Benzyl alcohol-corn oil was subcutaneously administered to groups (Group A and Group C) free from administration of estrogen. The compound of Example 1-1 was suspended in 0.5% methyl cellulose solution and orally administered to groups (Group C and Group D) to be administered with the test compound at the dose of 3 mg/kg. As regards the groups (Group A and Group B) free from administration of the test compound, 0.5% methyl cellulose solution was orally administered.
In addition, blood was drawn with time for the measurement of blood PTH at day 16 of administration. The blood was drawn in each group from the tail vein immediately before oral administration and 0.25, 0.5, 1, 2 and 4 hr later, and serum was obtained. For serum PTH measurement, a commercially available ELISA kit (“rat intact PTH ELISA kit”, Immutopics) was used.

In the next series the test system is bone resorption. Nature of the series: Concomitant administration of test compound and estrogen: bone resorption marker blood ICTP. The class given is in vivo, ovariectomized rats. Particulars: day 13, exclusive administration (Group B estradiol 10 μg/kg s.c.; Group C Example 1-1 3 mg/kg oral), mean ± S.D., n = 5. Here is the method:
The 13-week-old ovariectomized rats were divided into 4 groups of a control group (Group A), an estrogen administration group (Group B), a test compound administration group (Group C), and a test compound and estrogen concomitant administration group (Group D). One sham control group (E group) subjected to a sham surgery was also established. Estradiol was dissolved in 5% benzyl alcohol-corn oil and subcutaneously administered to an estrogen administration groups (Group B and Group D) at the dose of 10 μg/kg. 5% Benzyl alcohol-corn oil was subcutaneously administered to groups (Group A and Group C) free from administration of estrogen. The compound of Example 1-1 was suspended in 0.5% methyl cellulose solution and orally administered to groups (Group C and Group D) to be administered with the test compound at the dose of 3 mg/kg. As regards the groups (Group A and Group B) free from administration of the test compound, 0.5% methyl cellulose solution was orally administered. On day 13 from the start of the administration, the blood was drawn in each group from the tail vein, and serum was obtained. ICTP, which is a blood bone resorption marker, was measured using a commercially available ELISA kit (“RatLaps ELISA kit”, Nordic Bioscience Diagnostics).

Series [3] relates to PTH secretion. Nature of the series: PTH secretion action, Experimental Example 3 (serum PTH after oral administration). The class given is in vivo, male SD rats. The following applies: test compound administration group, 1 mg/5 ml/kg oral, rats fasted 20 hrs. Here is the method:
The test compound was orally administered to 5 to 9-week-old male SD rats (Charles River Japan, Inc.) fasted for 20 hrs, using a solvent (0.5% methyl cellulose solution) at a dose of 1 mg/5 ml/kg. A solvent alone was orally administered to the control group at a dose of 5 ml/kg. The blood was drawn from the tail vein immediately before and 15 min, 30 min after administration of the test compound, and serum was obtained. The serum PTH concentration was measured using rat PTH ELISA kit (Amersham Biosciences).

A further series addresses T1, human calcium receptor (Homo sapiens, UniProt P41180).
T1 construct: expressed in transfected cells; host or cells: cell strain derived from rat adrenal, co-transformed with luciferase cDNA
T1 sequence (P41180 20-1078): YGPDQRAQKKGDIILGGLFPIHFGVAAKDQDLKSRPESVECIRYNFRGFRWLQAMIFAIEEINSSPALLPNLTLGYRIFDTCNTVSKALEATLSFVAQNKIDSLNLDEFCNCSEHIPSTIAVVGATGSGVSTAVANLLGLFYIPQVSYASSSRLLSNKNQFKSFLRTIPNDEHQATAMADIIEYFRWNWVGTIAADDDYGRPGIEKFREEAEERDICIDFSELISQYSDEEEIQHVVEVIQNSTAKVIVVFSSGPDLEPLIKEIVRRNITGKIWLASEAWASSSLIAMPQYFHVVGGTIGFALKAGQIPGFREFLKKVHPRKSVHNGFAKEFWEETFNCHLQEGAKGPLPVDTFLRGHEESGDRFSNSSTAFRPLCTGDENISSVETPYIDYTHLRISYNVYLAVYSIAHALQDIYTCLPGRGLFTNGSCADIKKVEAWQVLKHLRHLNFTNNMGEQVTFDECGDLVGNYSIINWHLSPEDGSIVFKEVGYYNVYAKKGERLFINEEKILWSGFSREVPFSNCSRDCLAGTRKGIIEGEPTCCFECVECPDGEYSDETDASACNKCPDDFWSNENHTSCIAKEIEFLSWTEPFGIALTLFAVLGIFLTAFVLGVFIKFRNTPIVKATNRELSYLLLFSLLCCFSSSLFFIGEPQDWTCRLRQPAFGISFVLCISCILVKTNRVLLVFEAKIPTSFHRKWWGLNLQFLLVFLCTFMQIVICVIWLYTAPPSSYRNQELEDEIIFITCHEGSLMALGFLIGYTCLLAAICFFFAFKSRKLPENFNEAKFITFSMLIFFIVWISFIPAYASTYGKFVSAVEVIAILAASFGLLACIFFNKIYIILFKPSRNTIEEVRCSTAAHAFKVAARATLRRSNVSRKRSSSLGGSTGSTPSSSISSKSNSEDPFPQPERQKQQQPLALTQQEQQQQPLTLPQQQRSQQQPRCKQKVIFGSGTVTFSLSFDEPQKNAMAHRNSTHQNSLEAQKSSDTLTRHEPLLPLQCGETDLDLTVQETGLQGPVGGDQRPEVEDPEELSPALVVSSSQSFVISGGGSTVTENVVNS
Description: Evaluation of antagonistic action on calcium receptor using reporter gene (luciferase). The class given is cell-based. Particulars: transformed rat adrenal derived cells, 5 mM calcium chloride, culture 4 hrs, luciferase activity; read-out: Reporter gene assay (IC50, concentration showing 50% inhibitory rate). In a few lines: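 Rat adrenal-derived cells transfected with luciferase and human calcium receptor cDNA, in F12 with 0.5% dialyzed horse serum and 0.25% dialyzed fetal bovine serum. Luciferase luminescence gave % inhibition vs control and blank; IC50 at 50% inhibition.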
(In a reporter assay the amount or activity of a reporter protein is the signal.)

In a further series the test system is PTH release. The following applies: cited from earlier work.
Series [4] deals with osteoblast and osteoclast. The following applies: in vitro; cited from earlier work.
The conditions of series [5]: OVX rat, 100 μmol/kg; cited from earlier work.
In series [6] the test system is PTH secretion. Description: Reproductive test of NPS-2143 of the reference (PTH secretion). The class given is in vivo.

Structures are written as SMILES.

Take `COc1ccc(-c2cccc(C(=O)O)c2)cc1C(OC[C@H](O)CNC(C)(C)Cc1ccc2ccccc2c1)C1CC1` (some centres unmarked): the PTH secretion activity entry in the series with PTH secretion [1] is given as “no PTH secretion activity was exhibited”.

Regarding `C[C@]12CC[C@@H]3c4ccc(O)cc4CC[C@H]3[C@@H]1CC[C@@H]2O` [Estradiol, reference compound], the “Change of blood PTH with time” value in the series on PTH secretion [2] (Table 66, exclusive administration) is “increase in blood PTH was not observed”. The “PTH (1–84) concentration 0.25 hr” value with PTH secretion [2] (day 16, 0.25 hr, exclusive administration (Group B estradiol; Group C Example 1-1 3 mg/kg oral)) came out at 53.65 ± 56.31 pg/mL. Further, the “PTH (1–84) concentration 0.5 hr” value in the series on PTH secretion [2] (day 16, 0.5 hr, exclusive administration (Group B estradiol; Group C Example 1-1 3 mg/kg oral)) is 56.55 ± 21.71 pg/mL. In the series with PTH secretion [2] (day 16, 1 hr, exclusive administration (Group B estradiol; Group C Example 1-1 3 mg/kg oral)), the “PTH (1–84) concentration 1 hr” value is 35.70 ± 21.30 pg/mL. The “PTH (1–84) concentration 2 hr” value in the series with PTH secretion [2] (day 16, 2 hr, exclusive administration (Group B estradiol; Group C Example 1-1 3 mg/kg oral)) was determined as 41.94 ± 20.85 pg/mL. Besides, in the series on PTH secretion [2] (day 16, 4 hr, exclusive administration (Group B estradiol; Group C Example 1-1 3 mg/kg oral)), the “PTH (1–84) concentration 4 hr” value amounted to 46.84 ± 14.62 pg/mL. Besides, the “PTH (1–84) concentration 0 hr” value in the series on PTH secretion [2] (day 16, immediately before oral administration, exclusive administration (Group B estradiol 10 μg/kg s.c.; Group C Example 1-1 3 mg/kg oral)) is 36.83 ± 14.45 pg/mL. Moreover, the “Blood ICTP concentration” value in the series with bone resorption worked out at 20.93 ± 3.18 ng/mL.

Consider `Cc1ccc(CC(C)(C)NC[C@@H](O)CO[C@H](C)c2ccccc2Oc2ccc(C(=O)O)cc2)cc1F` [Example 2-1, 4-[2-[(1R)-[(2R)-3-[[1-(3-fluoro-4-methylphenyl)-2-methylpropan-2-yl]amino]-2-hydroxypropoxy]ethyl]phenoxy]benzoic acid], for which, in the series with PTH secretion [3] (15 min), the “Serum PTH concentration 15 min later” value came to 25.1 ± 2.3 pg/mL. In addition, the “Serum PTH concentration 30 min later” value with PTH secretion [3] (30 min) stood at 19.1 ± 0.9 pg/mL. The IC50 at human calcium receptor stood at 15 nM.

Regarding `CC(C)(Cc1ccc2ccccc2c1)NC[C@@H](O)COc1cccc(Cl)c1C#N` [NPS-2143], in the series with PTH release (OVX rat, 100 μmol/kg), the “Blood PTH concentration 4 hours later” value is given as “about 140 pg/ml”. The “Blood PTH concentration in 30 minutes” value in the series with PTH release (OVX rat, rat PTH (1-34) 5 μg/kg, NPS-2143 100 μmol/kg) is given as “about 115 pg/ml”. Moreover, in the series with PTH release (OVX rats, oral), the “Effect on bone (bone density)” value is “free of bone decrease or bone increase” and the “Release of PTH” value is given as “significantly promotes release of PTH”. In addition, the “Direct effect on osteoblast and osteoclast” value in series [4] is recorded as “did not show any direct effect”. In series [5], the “Blood concentration of NPS-2143 8 hours after the administration” value is “not less than 100 ng/ml” and the “Blood concentration of NPS-2143 24 hours later” value was at most 10 ng/mL. In addition, the “PTH secretion promoting action” value in the series with PTH secretion [6] is “sustained secretion promoting action”.

Source of the values: patent US7304174B2, “CaSR antagonist” (Japan Tobacco Inc., priority 2003, dated 2007).
